Here are results for seven compounds from US20250188085A1, “COMPOSITIONS AND METHODS FOR INHIBITION OF RAS” (THERAS, INC., priority 2022, published 2025).

Assay [1] addresses T1, GDP-loaded KRAS4b (amino acids 1-169) G12C/C118S protein (Homo sapiens, UniProt P01116, C118S/G12C).
T1 construct: KRAS4b (amino acids 1-169) G12C/C118S protein; made in house
Put plainly: Covalent cysteine 12 modification by MALDI-TOF MS, GDP-loaded KRAS G12C. It counts as binding. To be noted: 15 minutes reaction time point. In short, it runs like this:
(§1)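 KRAS4b 1-169 G12C/C118S loaded with GDP, GppNHp or GTP was used at 1 μM in 20 mM HEPES, 150 mM NaCl, 1 mM MgCl2, pH 7.3, and incubated with compound (5 mM DMSO stock) at room temperature in the dark. % modification at 15 min is adduct peak height over total protein peak heights by linear-mode MALDI-TOF.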

A further assay relates to pERK in NCI-H358 cells. Kind of assay: Cell-based pERK HTRF assay. To be noted: 30 min incubation, read-out: pERK in NCI-H358 cell inhibition IC50. A digest of the protocol:
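Cells seeded at 4×10^4/well in RPMI with 10% FBS, then next day treated for 30 min with a 9-point, 3-fold series from 75 μM top concentration at 0.25% DMSO. Lysates were read for pERK by HTRF (d2/Eu cryptate antibodies) after 4–24 h at room temperature, emission at 615 nm.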
(In general: In TR-FRET formats the signal depends on donor and acceptor labels being close together.)

Assay [2] deals with T2, GppNHp-loaded KRAS4b (amino acids 1-169) G12C/C118S protein (Homo sapiens, UniProt P01116, C118S/G12C).
T2 construct: KRAS4b (amino acids 1-169) G12C/C118S protein; made in house
Kind of assay: Covalent cysteine 12 modification by MALDI-TOF MS, GppNHp-loaded KRAS G12C. The assay is classed as binding. To be noted: 15 minutes reaction time point. A digest of the protocol:
as §1

Assay [3] deals with T3, GTP-loaded KRAS4b (amino acids 1-169) G12C/C118S protein (Homo sapiens, UniProt P01116, C118S/G12C).
T3 construct: KRAS4b (amino acids 1-169) G12C/C118S protein; made in house
Kind of assay: Covalent cysteine 12 modification by MALDI-TOF MS, GTP-loaded KRAS G12C. The assay is classed as binding. To be noted: 15 minutes reaction time point. Here is the method:
Reaction: 1 μM of GppNHp-, GTP-, or GDP-loaded KRAS4b (amino acids 1-169) G12C/C118S protein (produced in-house by Protein Expression Laboratory, FNLCR/Leidos Biomed) in 20 mM 4-(2-hydroxyethyl)-1-piperazineethanesulfonic acid (HEPES) buffer containing 150 mM NaCl, 1 mM MgCl2, pH 7.3 was prepared freshly before assay. Ten-μL aliquots of protein were dispensed onto low volume 384-well plate, then 375 nL DMSO, and 25 nL of tested compounds from 5 mM DMSO stocks were added to appropriate wells using ECHO 555 acoustic liquid handler (Labcyte Inc.). For each reaction/assay, three blanks were prepared by mixing 10 μL of protein solution with 400 nL DMSO. The contents of the wells were carefully mixed by aspiration, and then each plate was sealed with an adhesive cover, centrifuged at 2000 g for 1 minute, and kept in the dark at room temperature until 5 min, 15 min, 30 min, or 2 h collections.
Target pretreatment: Before each assay MALDI target (Bruker MPT 384 ground steel BC) was pre-treated by pipetting on each spot 0.75 μL of saturated sinapinic acid in acetonitrile (ACN).
Sample preparation: At collection time point, 2 μL of reaction mixtures were pipetted out into 20 μL MALDI matrix solution (saturated solution of sinapinic acid in 1:1 ACN:water solution containing 0.75% trifluoroacetic acid (TFA)) deposited on 384 well polypropylene plate. Resulting solution was mixed by aspiration, centrifuged at 2000 g for 1 minute, then 1 μL aliquots were dispensed on pre-treated MALDI target using Beckman Coulter Biomek FXP 96/384-Span-8 Laboratory Automation Workstation. Finally, the MALDI target was dried under mild vacuum to produce spots with fine crystalline structure.
Measurements: MALDI-TOF measurements were performed on a Bruker Daltonics rapiflex Tissuetyper TOF-TOF mass spectrometer using linear mode and mass range from 18.6 to 21.6 kDa. Detector gain was set to 3.3× (483 V), sample rate to 5 GS/s, real time smoothing to medium (175 MHz), laser smart beam pattern was set to: “MS Thin Layer M5”, and the laser frequency was 10000 Hz. Spectra were automatically collected using custom Auto Xecute method. Laser power was auto adjusted using fuzzy control. The peak selection range was set to be between 19000 and 21500 Da. Peak evaluation uses half width parameter set to be smaller than 40 Da for processed spectrograms (centroid peak detection; smoothed by SavitzkyGolay algorithm using 7 m/z width and 2 cycles; baseline was subtracted using median algorithm with flatness 1 and median level 0.01). Fuzzy control used Proteins/Oligonucleotides protocol with minimum half width 1/10 times above threshold. Up to 40000 satisfactory shots were collected in 10000 shot steps. Dynamic termination was implemented to finish data collection when peak signal/noise ratio was reaching value of 50.
Spectra processing: Spectra were smoothed by SavitzkyGolay algorithm using 7 m/z width and three cycles. Centroid peak detection algorithm was used with signal to noise threshold set to 6, relative intensity threshold 4%, peak width 10 m/z and median baseline subtraction using flatness of 1 and median level of 0.01. Peak intensity and area under the peak were evaluated and recorded for all peaks between 19,300 Da and 21,550 Da.
Calculation of percent modification: Percent modification was calculated as a ratio of peak height for protein modified by compound to sum of peak height of remaining protein plus peak height for protein modified by compound. If multiple modifications were observed each was calculated as a ratio of peak height for given modification versus sum of peak heights for all observed protein species. Data reported in Table 5 are from 15 minutes reaction time point.

Assay [4] has as its target T4, Avi-KRAS G12C (1-169) GppNHp/RAF1 RBD-3×FLAG (52-151) (Homo sapiens, UniProt P01116, G12C).
T4 construct: Avi-KRAS G12C (1-169) GppNHp/RAF1 RBD-3×FLAG (52-151)
Kind of assay: Raf1 RBD-KRAS G12C-GppNHp disruption (protein:protein interaction HTRF assay). It counts as biochemical. A digest of the protocol:
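HTRF measuring disruption of 50 nM Avi-KRAS G12C (1-169) loaded with GppNHp binding RAF1 RBD-3×FLAG (52-151), in pH 7.5 Tris buffer with 5 mM MgCl2, 0.1% BSA, 10% DMSO. KRAS preincubated with compound 1 h, then RBD 1 h, then detection reagents 1 h, all at room temperature. Compound titration 30-0.02 μM; activity expressed as percent of DMSO control.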

Like-named read-outs stand apart in the source and are kept apart here.

What is called IC50 is the concentration at which inhibition is half-maximal. In the case of `C=CC(=O)N1C[C@H](Oc2nc(OC[C@@]34CCCN3C[C@H](F)C4)nc3c(F)c(-c4ccc(F)c5sc(N)c(C#N)c45)c(C(F)(F)F)cc23)C[C@@H]1COC` (atropisomer, axis not shown) [Compound 85], the “GDP-KRAS G12C percent of modification” value in assay [1] is recorded as “C (10%≤modification <50%)”. The figures for the IC50 (in the assay on pERK in NCI-H358 cells; in assay [4]) were at most 100 nM and at most 500 nM, respectively. In assay [2], the “GppNHp-KRAS G12C percent of modification” value is given as “C (10%≤modification <50%)”. Besides, the “GTP-KRAS G12C percent of modification” value in assay [3] was “C (10%≤modification <50%)”.

On to `C=CC(=O)N1CC[C@@H](Oc2nc(OC[C@@]34CCCN3C[C@H](F)C4)nc3c(F)c(-c4ccc(F)c5sc(N)c(C#N)c45)c(C(F)(F)F)cc23)[C@H]1CF` [Compound 71], for which, in assay [1], the “GDP-KRAS G12C percent of modification” value is listed as “C (10%≤modification <50%)”. The IC50 is at most 100 nM in the assay with pERK in NCI-H358 cells (Homo sapiens, NCI-H358, 0.5 h) and at most 500 nM in assay [4]. In addition, the “GppNHp-KRAS G12C percent of modification” value in assay [2] is given as “C (10%≤modification <50%)”. The “GTP-KRAS G12C percent of modification” value in assay [3] is on record as “D (percent of modification <10%)”.

For the compound `C=CC(=O)N1CC[C@@H](Oc2nc(OC[C@@]34CCCN3C[C@H](F)C4)nc3c(F)c(-c4ccc(F)c5sc(N)c(C#N)c45)ncc23)[C@H]1C` [Compound 73, 4-(4-(((2R,3R)-1-acryloyl-2-methylpyrrolidin-3-yl)oxy)-8-fluoro-2-(((2R,7aS)-2-fluorotetrahydro-1H-pyrrolizin-7a (5H)-yl)methoxy)pyrido[4,3-d]pyrimidin-7-yl)-2-amino-7-fluorobenzo[b]thiophene-3-carbonitrile], the “GDP-KRAS G12C percent of modification” value in assay [1] is listed as “A (percent of modification ≥70%)”. The concentration for half-maximal inhibition (IC50) was at most 100 nM in the assay on pERK in NCI-H358 cells (Homo sapiens, NCI-H358, 0.5 h) and at most 500 nM in assay [4]. Also, in assay [2], the “GppNHp-KRAS G12C percent of modification” value is on record as “A (percent of modification ≥70%)”. Further, in assay [3], the “GTP-KRAS G12C percent of modification” value is reported as “A (percent of modification ≥70%)”.

`C=CC(=O)N1CC[C@@H](Oc2nc(OC[C@@]34CCCN3C[C@H](F)C4)nc3cc(-c4ccc(F)c5sc(N)c(C#N)c45)c(C(F)(F)F)nc23)[C@H]1C` [Compound 91]: the “GDP-KRAS G12C percent of modification” value in assay [1] is reported as “A (percent of modification ≥70%)”. The IC50 is at most 100 nM with pERK in NCI-H358 cells (Homo sapiens, NCI-H358, 0.5 h) and at most 500 nM in assay [4]. Besides, the “GppNHp-KRAS G12C percent of modification” value in assay [2] is on record as “B (50≤percent of modification <70%)”. The “GTP-KRAS G12C percent of modification” value in assay [3] is recorded as “C (10%≤modification <50%)”.

Consider `C=CC(=O)N1CC[C@@H](Oc2nc(OC[C@@]34CCCN3C[C@H](F)C4)nc3c(F)c(-c4ccc(F)c5sc(N)c(C#N)c45)ccc23)[C@H]1CC` [Compound 108], for which, in assay [1], the “GDP-KRAS G12C percent of modification” value was “A (percent of modification ≥70%)”. Besides, the IC50 in the assay on pERK in NCI-H358 cells (Homo sapiens, NCI-H358, 0.5 h) is at most 100 nM; in assay [4], at most 500 nM. The “GppNHp-KRAS G12C percent of modification” value in assay [2] is reported as “C (10%≤modification <50%)”. Moreover, the “GTP-KRAS G12C percent of modification” value in assay [3] is on record as “C (10%≤modification <50%)”.

In the case of `C=CC(=O)N1C[C@H](Oc2nc(OC[C@@]34CCCN3C[C@H](F)C4)nc3c(F)c(-c4ccc(F)c5sc(N)c(C#N)c45)ccc23)[C@@H](F)C1` [Compound 77], in assay [1], the “GDP-KRAS G12C percent of modification” value is on record as “A (percent of modification ≥70%)”. For the same compound, the 50% inhibitory concentration (IC50) in the assay on pERK in NCI-H358 cells (Homo sapiens, NCI-H358, 0.5 h) was at most 100 nM; in assay [4], at most 500 nM. Further, the “GppNHp-KRAS G12C percent of modification” value in assay [2] was “A (percent of modification ≥70%)”. Further, the “GTP-KRAS G12C percent of modification” value in assay [3] is given as “A (percent of modification ≥70%)”.

On to `C=CC(=O)N1CC[C@@H](Oc2nc(N3CC(N4CC5(CC5)C4)C3)nc3c(F)c(-c4ccc(F)c5sc(N)c(C#N)c45)ncc23)C1` [Compound 87], for which the “GDP-KRAS G12C percent of modification” value in assay [1] is on record as “A (percent of modification ≥70%)”. Moreover, the IC50 lay within 100 to 1000 nM in the assay on pERK in NCI-H358 cells (Homo sapiens, NCI-H358, 0.5 h) and 500 to 5000 nM in assay [4]. The “GppNHp-KRAS G12C percent of modification” value in assay [2] is “C (10%≤modification <50%)”. Further, in assay [3], the “GTP-KRAS G12C percent of modification” value is recorded as “D (percent of modification <10%)”.
